# Measurements as given in patent US8987309B2, “Compounds, pharmaceutical compositions and methods of use of 2-aryl pyridylazoles” (The Translational Genomics Research Institute, priority 2009, dated 2015).
# Entries after “also recorded” stand apart in the source; their conditions may differ.
# Columns and labels:
# TrkB = TrkB (Homo sapiens, UniProt Q16620); test: Follow-up kinase screening and IC50 (SignalChem), TrkB; format: biochemical; design: assay run by SignalChem Pharmaceuticals, Inc. (Richmond, BC, Canada)
# MDA231 = test: IC50 in tumor cell lines (MDA231); format: cell-based; settings: Table 2; breast tumor cell line MDA231
# Protocol: (§1) Cytotoxicity Assays. Cytotoxicity assays in the mechanism of action studies were performed according to Mosmann (1983), wherein the activity of mitochondrial reductases were measured using 3-(4,5-dimethylthiozol-3-yl)-2,5-diphenyltetrozolium bromide dye. In brief, cells were seeded in 96-well plates and incubated for various times at 37° C. Inhibition of cell growth was measured by adding 3-(4,5-dimethylthiozol-3-yl)-2,5-diphenyltetrozolium bromide dye, and after an additional 4 h of incubation at 37° C., the 96-well plates were centrifuged, and the culture supernatant was removed. DMSO was added to each well to solubilize the formazan crystals, and the optical density was read at 540 nm on a Quant Spectrophotometer (BioTek Instruments, Winooski, Vt.). Cell growth inhibition data are expressed as percentage of survival compared with untreated cells. The IC50 is defined as the drug concentration required to produce 50% growth inhibition. Results are mean S.E.M. (n 3).
# A498 = test: IC50 in tumor cell lines (A498); format: cell-based; settings: Table 2; kidney tumor cell line A498
# Protocol: as §1
# PIM-1 [1] = biological target: T1, PIM-1 (Homo sapiens, UniProt P11309); test: Follow-up kinase screening and IC50 (SignalChem), PIM-1; format: biochemical; design: assay run by SignalChem Pharmaceuticals, Inc. (Richmond, BC, Canada)
# DU145 = test: IC50 in tumor cell lines (DU145); format: cell-based; settings: Table 1; prostate tumor cell line DU145
# Protocol: as §1
# H460 = test: IC50 in tumor cell lines (H460); format: cell-based; settings: lung tumor cell line H460
# Protocol: as §1
# [2] = Pharmacokinetic study, single intravenous dose; format: in vivo, SCID mice; settings: single intravenous 88 mg/kg
# Protocol: Pharmacokinetic Studies. The pharmacokinetics of DPC-046 in nontumor bearing SCID mice was determined after intravenous administration of a single dose of 88 mg/kg. Plasma samples were collected at 0, 1, 5, 15, 30, 60, 90, 120, 240, 480, 960, and 1440 min after dosing. Plasma DPC-046 concentrations were analyzed by reversed-phase chromatography and tandem mass spectrometry. In brief, mouse plasma was mixed with 99 volumes of acetonitrile, and an aliquot of the supernatant was injected onto the LC-MS. The LC-MS analysis was performed on a ThermoFinnigan Quantum Ultra triple quadrupole mass spectrometer (Thermo Fisher Scientific, Waltham, Mass.) in tandem with a Surveyor LC system. […] Data are mean±S.E.M. (n=3).
# PDGFRα = biological target: T2, PDGFRα (Homo sapiens, UniProt P16234); test: Initial kinase screening (Amphora), PDGFRα; format: biochemical; settings: 10 μM compound
# T2 construct: assay run by Amphora Discovery Corporation (Durham, N.C.)
# Protocol: (§2) Kinase Screening. Initial kinase screening was performed by Amphora Discovery Corporation (Durham, N.C.).
# MCF7 = test: IC50 in tumor cell lines (MCF7); format: cell-based; settings: Table 2; breast tumor cell line MCF7
# Protocol: as §1
# [3] = test system: BxPC3 DPC-4(+/+) and BxPC3 DPC-4(−/−) cells; test: Cytotoxicity (96-h MTT) in isogenic BxPC3 cell lines; format: cell-based, Human; settings: BxPC3 cell lines
# Protocol: Cell lines and Culture Conditions. Human pancreatic cancer cell lines MiaPaCa-2 (Yunis et al., 1977), Panc-1 (Lieber et al., 1975), and BxPC3 (Tan et al., 1986) were purchased from the American Type Culture Collection (Manassas, Va.) and cultured in a humidified incubator at 37° C., 5% CO2, in RPMI 1640 medium (CellGro, Manassas, Va.) supplemented with 10% heat-inactivated bovine calf serum, 2 mM L-glutamine, 100 U/ml penicillin, and 100 µg/ml streptomycin (Invitrogen, Carlsbad, Calif.). MiaPaCa-2 (CRL-1420) is an adherent epithelial human pancreatic cancer cell line with a doubling time of approximately 40 h (Yunis et al., 1977). Panc-1 (CRL-1469) is an undifferentiated human pancreatic epithelial cell line with a doubling time of approximately 52 h (Lieber et al., 1975). The BxPC3 cell line DPC-4(−/−) and its isogenic restored wild-type DPC-4(+/+) cell line were developed and cultured as described previously (Wang et al., 2006). In brief, a DPC-4-expressing construct (pMSCVneoDPC-4) was created by amplifying full-length cDNA of DPC-4 using reverse transcriptase-PCR and subcloning into the multiple cloning site of a retroviral vector (pMSCVneo). The DPC-4-expressing construct was cotransfected into the BxPC3 DPC-4(−/−) cells using a packaging cell line, resulting in a cell line that constitutively expresses DPC-4. The expression of DPC-4 was confirmed by Western blotting (Wang et al., 2006).
# as §1
# Mean±S.E.M., n=3. […] Mean±S.E.M., n=3. […] Mean tumor burden is shown.
# SK-OV-3 = test: IC50 in tumor cell lines (SK-OV-3); format: cell-based; settings: Table 2; ovarian tumor cell line SK-OV-3
# Protocol: as §1
# PIM-1 [4] = biological target: T1, PIM-1; test: Initial kinase screening (Amphora), PIM-1; format: biochemical; design: assay run by Amphora Discovery Corporation (Durham, N.C.); settings: 10 μM compound
# Protocol: as §2
# [5] = Plasma protein binding (rapid equilibrium dialysis), mouse plasma; format: in vitro ADME; settings: plasma concentration of 3.27 μM
# Protocol: Plasma Protein Binding. Plasma protein binding of DPC-046 was determined in human and mouse plasma using rapid equilibrium dialysis (RED) devices manufactured by Thermo Fisher Scientific. Plasma pH was adjusted to 7.4 and spiked with DPC-046 to a final plasma concentration of 1 μg/ml. Aliquots (500 μl) of the spiked plasma were placed into the sample chamber, and 750 μl of phosphate-buffered saline were placed into the adjacent chamber. Triplicate samples were loaded into the RED devices. The RED devices were incubated at 37° C. on an orbital shaker operating at 100 rpm for 24 h. […] After the incubation, aliquots of plasma and buffer were removed for the analysis of DPC-046 concentration by LC-MS-MS as described above.
# IRAK-4 = biological target: T3, IRAK-4 (Homo sapiens, UniProt Q9NWZ3); test: Follow-up kinase screening and IC50 (SignalChem), IRAK-4; format: biochemical
# T3 construct: assay run by SignalChem Pharmaceuticals, Inc. (Richmond, BC, Canada)
# [6] = 25 μM DPC-046, follow-up screen
# [7] = highest concentration tested (50 μM)
# T1 sequence (P11309 whole entry): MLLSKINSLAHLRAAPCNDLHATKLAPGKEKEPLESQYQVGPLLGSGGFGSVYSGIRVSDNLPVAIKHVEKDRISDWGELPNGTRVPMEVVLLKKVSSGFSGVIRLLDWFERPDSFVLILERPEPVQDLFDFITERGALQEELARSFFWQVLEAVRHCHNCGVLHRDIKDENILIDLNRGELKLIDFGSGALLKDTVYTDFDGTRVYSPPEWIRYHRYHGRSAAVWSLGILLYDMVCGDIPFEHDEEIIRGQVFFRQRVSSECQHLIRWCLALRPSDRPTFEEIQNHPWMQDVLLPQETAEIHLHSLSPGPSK
# T3 sequence (Q9NWZ3 whole entry): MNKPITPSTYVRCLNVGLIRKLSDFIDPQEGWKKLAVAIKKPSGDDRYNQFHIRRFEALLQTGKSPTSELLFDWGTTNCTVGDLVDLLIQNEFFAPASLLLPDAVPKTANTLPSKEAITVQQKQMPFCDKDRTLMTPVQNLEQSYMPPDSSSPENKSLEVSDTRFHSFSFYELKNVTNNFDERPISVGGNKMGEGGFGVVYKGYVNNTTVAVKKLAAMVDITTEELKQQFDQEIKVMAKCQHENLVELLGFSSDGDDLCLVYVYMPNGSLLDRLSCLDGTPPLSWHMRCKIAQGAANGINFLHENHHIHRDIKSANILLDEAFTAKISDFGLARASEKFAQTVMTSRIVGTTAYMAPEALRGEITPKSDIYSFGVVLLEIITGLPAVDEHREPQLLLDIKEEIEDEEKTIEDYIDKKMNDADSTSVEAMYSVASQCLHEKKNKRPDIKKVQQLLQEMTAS
# Chain of TrkB (Q16620 32-822): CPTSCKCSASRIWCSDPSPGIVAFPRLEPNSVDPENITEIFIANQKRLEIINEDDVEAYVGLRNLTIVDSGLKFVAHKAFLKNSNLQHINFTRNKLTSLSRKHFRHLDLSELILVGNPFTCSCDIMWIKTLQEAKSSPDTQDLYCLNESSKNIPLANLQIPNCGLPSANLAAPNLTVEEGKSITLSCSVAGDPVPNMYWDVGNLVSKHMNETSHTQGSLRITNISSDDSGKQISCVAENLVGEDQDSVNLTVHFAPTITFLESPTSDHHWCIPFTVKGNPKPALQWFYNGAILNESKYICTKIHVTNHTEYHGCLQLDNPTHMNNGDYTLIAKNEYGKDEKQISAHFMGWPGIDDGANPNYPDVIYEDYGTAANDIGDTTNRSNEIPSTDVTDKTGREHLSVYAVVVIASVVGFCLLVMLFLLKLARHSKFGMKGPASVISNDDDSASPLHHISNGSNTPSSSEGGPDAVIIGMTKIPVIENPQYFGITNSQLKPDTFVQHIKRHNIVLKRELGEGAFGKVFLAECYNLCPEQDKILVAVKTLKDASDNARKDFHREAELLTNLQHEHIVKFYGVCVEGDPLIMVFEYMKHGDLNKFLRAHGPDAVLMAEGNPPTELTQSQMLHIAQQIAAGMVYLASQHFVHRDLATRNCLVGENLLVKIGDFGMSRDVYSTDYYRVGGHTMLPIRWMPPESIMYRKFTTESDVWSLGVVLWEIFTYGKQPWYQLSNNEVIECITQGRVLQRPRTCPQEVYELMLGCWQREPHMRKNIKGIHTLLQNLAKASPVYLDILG
# T2 sequence (P16234 24-1089, species assumed): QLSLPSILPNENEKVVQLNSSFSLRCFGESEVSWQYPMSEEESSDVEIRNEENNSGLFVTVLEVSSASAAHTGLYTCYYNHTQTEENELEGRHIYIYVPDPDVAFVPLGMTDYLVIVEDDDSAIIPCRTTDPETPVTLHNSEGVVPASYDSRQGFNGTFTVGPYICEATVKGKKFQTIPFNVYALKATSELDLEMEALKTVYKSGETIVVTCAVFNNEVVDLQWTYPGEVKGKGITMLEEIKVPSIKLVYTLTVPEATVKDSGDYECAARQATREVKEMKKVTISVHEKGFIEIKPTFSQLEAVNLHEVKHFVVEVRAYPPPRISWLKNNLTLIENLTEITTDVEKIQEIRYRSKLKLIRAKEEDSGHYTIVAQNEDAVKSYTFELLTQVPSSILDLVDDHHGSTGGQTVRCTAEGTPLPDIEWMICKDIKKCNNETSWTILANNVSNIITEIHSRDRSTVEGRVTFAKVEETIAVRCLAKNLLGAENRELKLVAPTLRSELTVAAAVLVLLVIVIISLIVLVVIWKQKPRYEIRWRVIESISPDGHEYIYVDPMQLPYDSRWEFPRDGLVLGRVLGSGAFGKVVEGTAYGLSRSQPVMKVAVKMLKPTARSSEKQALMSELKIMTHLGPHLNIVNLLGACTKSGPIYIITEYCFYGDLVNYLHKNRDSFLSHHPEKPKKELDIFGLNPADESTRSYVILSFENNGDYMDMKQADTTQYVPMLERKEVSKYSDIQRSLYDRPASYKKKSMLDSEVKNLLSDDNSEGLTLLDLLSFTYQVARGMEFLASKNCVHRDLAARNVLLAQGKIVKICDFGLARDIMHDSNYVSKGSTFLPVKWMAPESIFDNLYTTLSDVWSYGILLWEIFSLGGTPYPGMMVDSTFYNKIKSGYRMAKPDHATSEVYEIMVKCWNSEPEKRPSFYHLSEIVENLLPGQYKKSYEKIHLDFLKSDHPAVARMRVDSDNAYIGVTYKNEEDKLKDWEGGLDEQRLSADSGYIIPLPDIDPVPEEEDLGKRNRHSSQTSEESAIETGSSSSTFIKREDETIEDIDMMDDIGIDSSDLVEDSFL
smiles,measurement,setting,value
COc1ccc(-c2cnc(-c3ccncc3-c3cccc(OC)c3)o2)cc1 [DPC046],inhibition of TrkB,TrkB; [6],more than 70%
same,inhibition of TrkB,TrkB; [7],98%
same,IC50,MDA231,17 nM
same,IC50,A498,14 nM
same,inhibition of PIM-1,PIM-1 [1]; [6],more than 70%
same,IC50,PIM-1 [1]; eight-point concentration range 10 nM to 50 μM,19100 nM
same,inhibition of PIM-1,PIM-1 [1]; [7],84%
same,IC50,DU145,27 nM
same,IC50,H460; Table 1,25 nM
same,IC50,H460; Table 2,25 nM
same,apparent volume of distribution,[2]; mice,135.2 L/kg
same,clearance,[2]; mice,248 mL/min/kg
same,mean (S.D.) plasma concentration at last sampling time,"[2]; mice, 24 h",0.226 (0.104) μM
same,mean (S.D.) peak plasma concentration,"[2]; mice, first sampling time (1 min)",10.8 (4.26) μM
same,monoexponential half-life,[2]; mouse plasma,7.5 h
same,inhibition of PDGFRα,PDGFRα,46%
same,IC50,MCF7,11 nM
same,potency against BxPC3 cell lines (in words),[3]; listed as DPC-046,most potent; also recorded: greatest cytotoxicity
same,potency against BxPC3 cell lines (in words),[3]; listed as PC-046,high potency
same,IC50,SK-OV-3,17 nM
same,inhibition of PIM-1,PIM-1 [4],50%
same,bound to plasma proteins,[5],91%
same,inhibition of IRAK-4,IRAK-4; [6],more than 70%
same,inhibition of IRAK-4,IRAK-4; [7],92%
